Measured values reported in ChEMBL document CHEMBL5380823, “Application and Study of ROCK Inhibitors in Pulmonary Fibrosis: Recent Developments and Future Perspectives” (J Med Chem, 2023).

Experiments:
[1] = biological target: T1, Rho-associated protein kinase 2 (Homo sapiens, UniProt O75116); assay: Inhibition of ROCK2 (unknown origin)
[2] = Half life in BLM-induced Sprague-Dawley rat at 1 mg/kg, iv measured upto 24 hrs; format: ADME, organism-based; settings: in vivo
[3] = Oral bioavailability in BLM-induced Sprague-Dawley rat at 2 mg/kg measured upto 24 hrs; format: ADME, organism-based; settings: in vivo
[4] = biological target: T1, Rho-associated protein kinase 2; assay: Binding affinity to ROCK2 (unknown origin) assessed as inhibition constant
[5] = biological target: Rho-associated protein kinase 1 (Homo sapiens, UniProt Q13464); assay: Binding affinity to ROCK1 (unknown origin) assessed as inhibition constant
[6] = Half life in iv dosed Wistar rat at 0.5 mg/kg; format: ADME, organism-based; settings: in vivo
[7] = Oral bioavailability in Wistar rat at 1 mg/kg; format: ADME, organism-based; settings: in vivo

T1 sequence (O75116 whole entry): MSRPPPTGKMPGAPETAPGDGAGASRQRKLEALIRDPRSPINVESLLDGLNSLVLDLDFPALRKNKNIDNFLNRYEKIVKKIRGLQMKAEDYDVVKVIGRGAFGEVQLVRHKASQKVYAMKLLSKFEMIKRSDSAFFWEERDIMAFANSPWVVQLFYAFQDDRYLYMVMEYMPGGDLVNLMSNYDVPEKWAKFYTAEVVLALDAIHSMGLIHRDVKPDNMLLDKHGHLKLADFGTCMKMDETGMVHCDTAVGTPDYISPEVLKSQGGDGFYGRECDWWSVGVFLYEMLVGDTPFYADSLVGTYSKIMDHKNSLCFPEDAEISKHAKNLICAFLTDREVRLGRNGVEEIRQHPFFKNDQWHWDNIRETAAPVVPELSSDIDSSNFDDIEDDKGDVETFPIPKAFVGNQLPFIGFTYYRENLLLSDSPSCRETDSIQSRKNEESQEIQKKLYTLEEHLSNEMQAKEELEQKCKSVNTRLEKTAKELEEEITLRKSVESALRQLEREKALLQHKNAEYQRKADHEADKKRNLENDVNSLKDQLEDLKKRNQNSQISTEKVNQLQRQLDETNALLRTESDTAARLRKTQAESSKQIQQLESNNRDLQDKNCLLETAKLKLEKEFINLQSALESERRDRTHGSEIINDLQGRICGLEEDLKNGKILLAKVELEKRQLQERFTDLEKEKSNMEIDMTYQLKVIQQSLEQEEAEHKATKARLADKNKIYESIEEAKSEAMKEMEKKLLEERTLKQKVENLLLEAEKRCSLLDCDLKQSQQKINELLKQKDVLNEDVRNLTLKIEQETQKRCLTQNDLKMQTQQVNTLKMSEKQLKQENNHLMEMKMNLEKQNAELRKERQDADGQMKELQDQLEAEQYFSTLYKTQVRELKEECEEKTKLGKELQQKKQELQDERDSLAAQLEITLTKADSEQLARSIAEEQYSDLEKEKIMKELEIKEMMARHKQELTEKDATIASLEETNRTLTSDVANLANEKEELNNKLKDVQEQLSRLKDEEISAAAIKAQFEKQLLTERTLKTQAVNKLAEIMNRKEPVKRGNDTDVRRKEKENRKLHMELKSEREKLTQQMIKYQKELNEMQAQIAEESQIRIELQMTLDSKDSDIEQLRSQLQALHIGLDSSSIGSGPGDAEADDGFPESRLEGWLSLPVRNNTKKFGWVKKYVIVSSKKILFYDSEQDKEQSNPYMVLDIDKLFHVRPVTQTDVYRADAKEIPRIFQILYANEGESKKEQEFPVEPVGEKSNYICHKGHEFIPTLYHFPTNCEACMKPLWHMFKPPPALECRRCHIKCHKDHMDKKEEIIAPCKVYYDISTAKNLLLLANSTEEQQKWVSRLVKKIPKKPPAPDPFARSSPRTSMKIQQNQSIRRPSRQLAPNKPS
Sequence of Rho-associated protein kinase 1 (Q13464 whole entry): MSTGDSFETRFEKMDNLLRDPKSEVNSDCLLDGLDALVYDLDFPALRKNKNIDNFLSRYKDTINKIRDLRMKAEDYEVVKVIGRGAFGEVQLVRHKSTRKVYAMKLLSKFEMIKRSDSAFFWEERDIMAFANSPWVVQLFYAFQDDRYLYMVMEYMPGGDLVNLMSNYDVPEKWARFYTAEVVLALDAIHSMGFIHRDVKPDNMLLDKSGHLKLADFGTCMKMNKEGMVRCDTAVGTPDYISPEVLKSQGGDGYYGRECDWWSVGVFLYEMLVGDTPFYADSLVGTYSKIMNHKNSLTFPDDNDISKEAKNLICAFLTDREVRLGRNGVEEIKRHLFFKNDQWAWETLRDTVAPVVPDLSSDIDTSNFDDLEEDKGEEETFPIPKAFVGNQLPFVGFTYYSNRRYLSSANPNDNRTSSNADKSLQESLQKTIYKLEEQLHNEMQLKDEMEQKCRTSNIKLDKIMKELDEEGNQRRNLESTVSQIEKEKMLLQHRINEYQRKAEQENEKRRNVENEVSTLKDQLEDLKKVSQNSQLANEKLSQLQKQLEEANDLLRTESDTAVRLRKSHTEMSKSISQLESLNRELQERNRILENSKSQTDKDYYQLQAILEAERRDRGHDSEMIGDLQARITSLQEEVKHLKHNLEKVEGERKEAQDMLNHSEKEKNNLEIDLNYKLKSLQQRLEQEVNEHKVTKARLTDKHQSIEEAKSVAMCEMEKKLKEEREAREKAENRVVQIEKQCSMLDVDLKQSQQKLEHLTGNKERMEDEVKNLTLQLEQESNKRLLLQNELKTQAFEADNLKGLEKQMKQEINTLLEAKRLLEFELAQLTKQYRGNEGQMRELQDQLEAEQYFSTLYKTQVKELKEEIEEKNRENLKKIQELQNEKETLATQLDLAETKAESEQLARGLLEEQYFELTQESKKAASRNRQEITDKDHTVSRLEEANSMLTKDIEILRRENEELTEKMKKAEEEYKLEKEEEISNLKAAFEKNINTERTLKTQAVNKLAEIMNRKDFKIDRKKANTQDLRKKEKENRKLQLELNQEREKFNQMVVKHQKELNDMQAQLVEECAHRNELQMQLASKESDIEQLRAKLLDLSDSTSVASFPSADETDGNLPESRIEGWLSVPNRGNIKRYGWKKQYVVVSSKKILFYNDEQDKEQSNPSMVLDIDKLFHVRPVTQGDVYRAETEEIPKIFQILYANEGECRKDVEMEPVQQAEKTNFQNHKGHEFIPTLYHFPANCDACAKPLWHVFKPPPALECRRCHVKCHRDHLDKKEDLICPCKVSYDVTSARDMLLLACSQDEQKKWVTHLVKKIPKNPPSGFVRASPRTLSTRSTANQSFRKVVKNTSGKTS

SMILES | IC50 [1] [nM] | further results
COc1cccc(C(CO)NC(=O)c2cccc(-c3ccc4[nH]ncc4c3)c2)c1 (stereo not drawn) |  | half-life [2]: 2.9 h; bioavailability [3]: 45%
c1cc(Oc2ccc3c(c2)CNCC3)c2c(-c3ccncc3)c[nH]c2c1 |  | Ki [4]: < 3 nM; Ki [5]: < 3 nM
Cc1c[nH]c2nccc(Oc3ccc(Nc4cc(Cl)nc(N)n4)cc3F)c12 |  | half-life [6]: 1.2 h; bioavailability [7]: 48%
COc1cc(-c2cc(C)cc(C)n2)sc1C(=O)NCC(O)CO (stereo not drawn) | 14 | 

Continued, in another order:

IC50 [1] [nM] | SMILES | further results
0.2 | Cc1c(C(=O)N[C@H]2C[C@]3(C2)C[C@H](c2n[nH]c(=O)c4ccccc42)C3)cnn1-c1ccccc1 (stereo partly drawn) | 
< 5 | COc1cccc(Cn2cnn(-c3ccc(-c4cn[nH]c4)cc3)c2=O)c1 | 
< 3 | COc1cccc(CN2C(=O)N(c3ccc(-c4cn[nH]c4)c(OC)c3)CC23CC3)c1 | 
2 | NC(=O)c1ccccc1O[C@H]1C[C@]2(C1)C[C@H](N1C(=O)NC(c3ccccc3Cl)C1=O)C2 (stereo partly drawn) | 
< 10 | COc1cccc(CN2CCN(c3ccc4c(c3)CCc3n[nH]cc3-4)C2=O)c1 | 
1.45 | NC[C@@H](C(=O)Nc1ccc2cnsc2c1)c1ccc(CO)cc1 | 
